What was measured:
[1] = system: green foxtail; assay: Test C postemergence; type: in vivo, Setaria viridis; conditions: 10 days
Method in brief: (§1)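 Visual injury ratings on a 0–100 scale (100 = complete control) were made against untreated controls 10 days after treatment in the greenhouse. Compounds, formulated with surfactant in non-phytotoxic solvent, were sprayed on soil preemergence or onto one- to two-leaf plants 2–10 cm tall postemergence.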

[2] = system: ragweed; assay: Test C preemergence; type: in vivo, Ambrosia artemisiifolia; conditions: 0 to 100 scale (0 no effect, 100 complete control)
Method in brief: as §1

[3] = system: ryegrass, Italian; assay: Test C postemergence; type: in vivo, Lolium multiflorum; conditions: 10 days
Method in brief: as §1

[4] = system: oat, wild; assay: Test C preemergence; type: in vivo, Avena fatua; conditions: 0 to 100 scale (0 no effect, 100 complete control)
Method in brief: as §1

[5] = system: barnyardgrass; assay: Test C postemergence; type: in vivo, Echinochloa crusgalli; conditions: 10 days
Method in brief: as §1

[6] = system: wheat; assay: Test C preemergence; type: in vivo, Triticum aestivum; conditions: 0 to 100 scale (0 no effect, 100 complete control)
Method in brief: as §1

[7] = system: soybean; assay: Test C preemergence; type: in vivo, Glycine max; conditions: 0 to 100 scale (0 no effect, 100 complete control)
Method in brief: as §1

[8] = system: green foxtail; assay: Test C preemergence; type: in vivo, Setaria viridis; conditions: 0 to 100 scale (0 no effect, 100 complete control)
Method in brief: as §1

[9] = system: barnyardgrass; assay: Test C preemergence; type: in vivo, Echinochloa crusgalli; conditions: 0 to 100 scale (0 no effect, 100 complete control)
Method in brief: as §1

[10] = system: ducksalad; assay: Test D flooded paddy test; type: in vivo, Heteranthera limosa; conditions: 250 g ai/ha, applied to paddy water, visual rating after 13 to 14 days, scale 0 to 100 (0 no effect, 100 complete control)
Method in brief: (§2)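 Plants grown to the 2-leaf stage; pots flooded to 3 cm above soil at treatment and held at that depth throughout. Test compounds applied directly to the paddy water. After 13 to 14 days in a greenhouse, response was rated visually versus controls on a 0 (no effect) to 100 (complete control) scale.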

[11] = system: pigweed, palmer; assay: Test C preemergence; type: in vivo, Amaranthus palmeri; conditions: 0 to 100 scale (0 no effect, 100 complete control)
Method in brief: as §1

[12] = system: sedge, umbrella; assay: Test D flooded paddy test; type: in vivo, Cyperus difformis; conditions: 250 g ai/ha, applied to paddy water, visual rating after 13 to 14 days, scale 0 to 100 (0 no effect, 100 complete control)
Method in brief: as §2

[13] = system: kochia; assay: Test C preemergence; type: in vivo, Bassia scoparia; conditions: 0 to 100 scale (0 no effect, 100 complete control)
Method in brief: as §1

[14] = system: ryegrass, Italian; assay: Test C preemergence; type: in vivo, Lolium multiflorum; conditions: 0 to 100 scale (0 no effect, 100 complete control)
Method in brief: as §1

[15] = system: pigweed, palmer; assay: Test C postemergence; type: in vivo, Amaranthus palmeri; conditions: 10 days
Method in brief: as §1

[16] = system: oat, wild; assay: Test C postemergence; type: in vivo, Avena fatua; conditions: 10 days
Method in brief: as §1

[17] = system: corn; assay: Test C preemergence; type: in vivo, Zea mays; conditions: 0 to 100 scale (0 no effect, 100 complete control)
Method in brief: as §1

[18] = system: rice; assay: Test D flooded paddy test; type: in vivo, Oryza sativa; conditions: 250 g ai/ha, applied to paddy water, visual rating after 13 to 14 days, scale 0 to 100 (0 no effect, 100 complete control)
Method in brief: as §2

[19] = system: barnyardgrass; assay: Test D flooded paddy test; type: in vivo, Echinochloa crus-galli; conditions: 250 g ai/ha, applied to paddy water, visual rating after 13 to 14 days, scale 0 to 100 (0 no effect, 100 complete control)
Method in brief: as §2

[20] = system: horseweed; assay: Test C postemergence; type: in vivo, Erigeron canadensis; conditions: Postemergence, 500 g ai/ha, 10 days, visual 0 to 100 scale (0 no effect, 100 complete control)
Method in brief: as §1

[21] = system: blackgrass; assay: Test C preemergence; type: in vivo, Alopecurus myosuroides; conditions: 0 to 100 scale (0 no effect, 100 complete control)
Method in brief: as §1

[22] = system: kochia; assay: Test C postemergence; type: in vivo, Bassia scoparia; conditions: 10 days
Method in brief: as §1

[23] = system: galium; assay: Test C postemergence; type: in vivo, Galium aparine; conditions: 10 days
Method in brief: as §1

[24] = system: soybean; assay: Test C postemergence; type: in vivo, Glycine max; conditions: 10 days
Method in brief: as §1

[25] = system: blackgrass; assay: Test C postemergence; type: in vivo, Alopecurus myosuroides; conditions: 10 days
Method in brief: as §1

[26] = system: wheat; assay: Test C postemergence; type: in vivo, Triticum aestivum; conditions: 10 days
Method in brief: as §1

[27] = system: ragweed; assay: Test C postemergence; type: in vivo, Ambrosia artemisiifolia; conditions: 10 days
Method in brief: as §1

[28] = system: corn; assay: Test C postemergence; type: in vivo, Zea mays; conditions: 10 days
Method in brief: as §1

[29] = 125 g ai/ha, postemergence, 0 to 100 scale, 0 no effect, 100 complete control
[30] = Postemergence, 500 g ai/ha, visual 0 to 100 scale (0 no effect, 100 complete control)
[31] = Preemergence, 500 g ai/ha, visual rating after 10 days
[32] = Test C, preemergence, 125 g ai/ha

Cc1ccc(-n2cnc(C3CCC3)n2)cc1C(=O)N1CC(C(F)(F)F)Oc2c(Cl)cccc21 (single isomer, unassigned) [Compound 219]
Plant response rating, Foxtail, Green [1, 29]: 80
Plant response rating, Foxtail, Green [1, 30]: 90
Plant response rating, Ragweed [2, 31]: 70
Ragweed plant response rating [2, 32]: 30
Plant response rating, Ryegrass, Italian [3, 29]: 50
Plant response rating, Ryegrass, Italian [3, 30]: 70
Plant response rating, Oat, Wild [4, 31]: 70
Oat, Wild plant response rating [4, 32]: 30
Plant response rating, Barnyardgrass [5, 29]: 70
Plant response rating, Barnyardgrass [5, 30]: 100
Plant response rating, Wheat [6, 31]: 50
Wheat plant response rating [6, 32]: 20
Plant response rating, Soybean [7, 31]: 90
Soybean plant response rating [7, 32]: 70
Plant response rating, Foxtail, Green [8, 31]: 100
Foxtail, Green plant response rating [8, 32]: 100
Plant response rating, Barnyardgrass [9, 31]: 100
Barnyardgrass plant response rating [9, 32]: 80
Plant response rating, Ducksalad (Flood) [10]: 50
Plant response rating, Pigweed, Palmer [11, 31]: 100
Pigweed, Palmer plant response rating [11, 32]: 100
Plant response rating, Sedge, Umbrella (Flood) [12]: 50
Plant response rating, Kochia [13, 31]: 100
Kochia plant response rating [13, 32]: 90
Plant response rating, Ryegrass, Italian [14, 31]: 80
Ryegrass, Italian plant response rating [14, 32]: 90
Plant response rating, Pigweed, Palmer [15, 29]: 100
Plant response rating, Pigweed, Palmer [15, 30]: 100
Plant response rating, Oat, Wild [16, 29]: 10
Plant response rating, Oat, Wild [16, 30]: 40
Plant response rating, Corn [17, 31]: 20
Corn plant response rating [17, 32]: 10
Plant response rating, Rice (Flood) [18]: 0
Plant response rating, Barnyardgrass (Flood) [19]: 10
Plant response rating, Horseweed [20]: 70
Plant response rating, Blackgrass [21, 31]: 40
Blackgrass plant response rating [21, 32]: 0
Plant response rating, Kochia [22, 29]: 80
Plant response rating, Kochia [22, 30]: 90
Plant response rating, Galium [23, 29]: 100
Plant response rating, Galium [23, 30]: 100
Plant response rating, Soybean [24, 29]: 100
Plant response rating, Soybean [24, 30]: 100
Plant response rating, Blackgrass [25, 29]: 40
Plant response rating, Blackgrass [25, 30]: 50
Plant response rating, Wheat [26, 29]: 20
Plant response rating, Wheat [26, 30]: 40
Plant response rating, Ragweed [27, 29]: 50
Plant response rating, Ragweed [27, 30]: 90
Plant response rating, Corn [28, 29]: 20
Plant response rating, Corn [28, 30]: 30
